According to patent US20260262643A1, “HERBICIDAL BENZOXAZINES” (FMC CORPORATION, priority 2022, published 2026):

Tests used:
barnyardgrass [1] = test: Test D flooded paddy test; assay type: in vivo, Echinochloa crus-galli; settings: 250 g ai/ha, applied to paddy water, visual rating after 13 to 14 days, scale 0 to 100 (0 no effect, 100 complete control)
How it was run: (§1)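 Plants at the 2-leaf stage were grown in pots flooded to 3 cm, and compound was applied directly into the paddy water, with depth kept throughout. After 13–14 days in a greenhouse, injury was rated visually against untreated controls on a 0–100 scale (100 = complete control); a dash means not tested.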

pigweed, palmer [2] = test: Test C postemergence; assay type: in vivo, Amaranthus palmeri; settings: 10 days
How it was run: (§2)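 Visual injury ratings on a 0–100 scale (100 = complete control) were made against untreated controls 10 days after treatment in the greenhouse. Compounds, formulated with surfactant in non-phytotoxic solvent, were sprayed on soil preemergence or onto one- to two-leaf plants 2–10 cm tall postemergence.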

horseweed = test: Test C postemergence; assay type: in vivo, Erigeron canadensis; settings: 10 days
How it was run: as §2

blackgrass [3] = test: Test C preemergence; assay type: in vivo, Alopecurus myosuroides; settings: 0 to 100 scale (0 no effect, 100 complete control)
How it was run: as §2

ragweed [4] = test: Test C postemergence; assay type: in vivo, Ambrosia artemisiifolia; settings: 10 days
How it was run: as §2

soybean [5] = test: Test C postemergence; assay type: in vivo, Glycine max; settings: 10 days
How it was run: as §2

ragweed [6] = test: Test C preemergence; assay type: in vivo, Ambrosia artemisiifolia; settings: 0 to 100 scale (0 no effect, 100 complete control)
How it was run: as §2

kochia [7] = test: Test C postemergence; assay type: in vivo, Bassia scoparia; settings: 10 days
How it was run: as §2

ducksalad = test: Test D flooded paddy test; assay type: in vivo, Heteranthera limosa; settings: 250 g ai/ha, applied to paddy water, visual rating after 13 to 14 days, scale 0 to 100 (0 no effect, 100 complete control)
How it was run: as §1

kochia [8] = test: Test C preemergence; assay type: in vivo, Bassia scoparia; settings: 0 to 100 scale (0 no effect, 100 complete control)
How it was run: as §2

oat, wild [9] = test: Test C postemergence; assay type: in vivo, Avena fatua; settings: 10 days
How it was run: as §2

barnyardgrass [10] = test: Test C preemergence; assay type: in vivo, Echinochloa crusgalli; settings: 0 to 100 scale (0 no effect, 100 complete control)
How it was run: as §2

ryegrass, Italian [11] = test: Test C postemergence; assay type: in vivo, Lolium multiflorum; settings: 10 days
How it was run: as §2

rice = test: Test D flooded paddy test; assay type: in vivo, Oryza sativa; settings: 250 g ai/ha, applied to paddy water, visual rating after 13 to 14 days, scale 0 to 100 (0 no effect, 100 complete control)
How it was run: as §1

green foxtail [12] = test: Test C postemergence; assay type: in vivo, Setaria viridis; settings: 10 days
How it was run: as §2

corn [13] = test: Test C postemergence; assay type: in vivo, Zea mays; settings: Zea mays, post-emergence, 240 h, 10 days
How it was run: as §2

pigweed, palmer [14] = test: Test C preemergence; assay type: in vivo, Amaranthus palmeri; settings: 0 to 100 scale (0 no effect, 100 complete control)
How it was run: as §2

green foxtail [15] = test: Test C preemergence; assay type: in vivo, Setaria viridis; settings: 0 to 100 scale (0 no effect, 100 complete control)
How it was run: as §2

oat, wild [16] = test: Test C preemergence; assay type: in vivo, Avena fatua; settings: 0 to 100 scale (0 no effect, 100 complete control)
How it was run: as §2

sedge, umbrella = test: Test D flooded paddy test; assay type: in vivo, Cyperus difformis; settings: 250 g ai/ha, applied to paddy water, visual rating after 13 to 14 days, scale 0 to 100 (0 no effect, 100 complete control)
How it was run: as §1

soybean [17] = test: Test C preemergence; assay type: in vivo, Glycine max; settings: 0 to 100 scale (0 no effect, 100 complete control)
How it was run: as §2

blackgrass [18] = test: Test C postemergence; assay type: in vivo, Alopecurus myosuroides; settings: Alopecurus myosuroides, post-emergence, 240 h, 10 days, read-out: Plant response rating, Blackgrass
How it was run: as §2

wheat [19] = test: Test C preemergence; assay type: in vivo, Triticum aestivum; settings: 0 to 100 scale (0 no effect, 100 complete control)
How it was run: as §2

barnyardgrass [20] = test: Test C postemergence; assay type: in vivo, Echinochloa crusgalli; settings: 10 days
How it was run: as §2

corn [21] = test: Test C preemergence; assay type: in vivo, Zea mays; settings: 0 to 100 scale (0 no effect, 100 complete control)
How it was run: as §2

ryegrass, Italian [22] = test: Test C preemergence; assay type: in vivo, Lolium multiflorum; settings: 0 to 100 scale (0 no effect, 100 complete control)
How it was run: as §2

wheat [23] = test: Test C postemergence; assay type: in vivo, Triticum aestivum; settings: 10 days
How it was run: as §2

[24] = 125 g ai/ha, postemergence, 0 to 100 scale, 0 no effect, 100 complete control
[25] = Postemergence, 500 g ai/ha, visual 0 to 100 scale (0 no effect, 100 complete control)
[26] = Preemergence, 500 g ai/ha, visual rating after 10 days
[27] = Test C, preemergence, 125 g ai/ha
[28] = 125 g ai/ha, postemergence, 0 to 100 scale (0 no effect, 100 complete control)

CC(C)c1ncn(-c2cc3c(c(C(=O)N4C[C@H](C)Oc5c(Cl)cccc54)c2)OCCO3)n1 [Compound 217, [(2S)-8-chloro-2-methyl-2,3-dihydro-1,4-benzoxazin-4-yl]-[7-(3-isopropyl-1,2,4-triazol-1-yl)-2,3-dihydro-1,4-benzodioxin-5-yl]methanone]
90: Plant response rating, Blackgrass (blackgrass [3]; [26]) | Plant response rating, Ragweed (ragweed [4]; [24]) | Plant response rating, Kochia (kochia [7]; [25]) | Barnyardgrass plant response rating (barnyardgrass [10]; [27]) | Plant response rating, Ryegrass, Italian (ryegrass, Italian [11]; [25]) | Plant response rating, Foxtail, Green (green foxtail [12]; [24]) | Plant response rating, Foxtail, Green (green foxtail [12]; [25]) | Plant response rating, Oat, Wild (oat, wild [16]; [26]) | Oat, Wild plant response rating (oat, wild [16]; [27]) | Plant response rating, Wheat (wheat [19]; [26]) | Ryegrass, Italian plant response rating (ryegrass, Italian [22]; [27])
70: Ragweed plant response rating (ragweed [6]; [27]) | Plant response rating, Ryegrass, Italian (ryegrass, Italian [11]; [24]) | Soybean plant response rating (soybean [17]; [27])
20: Plant response rating, Oat, Wild (oat, wild [9]; [24]) | Plant response rating, Rice (Flood) (rice)
85: Plant response rating, Ducksalad (Flood) (ducksalad)
50: Plant response rating, Barnyardgrass (Flood) (barnyardgrass [1]) | Plant response rating, Wheat (wheat [23]; [24]) | Plant response rating, Wheat (wheat [23]; [25])
80: Plant response rating, Horseweed (horseweed; [24]) | Plant response rating, Kochia (kochia [7]; [24]) | Kochia plant response rating (kochia [8]; [27]) | Plant response rating, Barnyardgrass (barnyardgrass [20]; [25])
40: Plant response rating, Oat, Wild (oat, wild [9]; [25]) | Plant response rating, Barnyardgrass (barnyardgrass [20]; [24]) | Plant response rating, Corn (corn [21]; [26])
70%: Corn plant response rating (crop injury, 0 = no effect, 100 = complete kill) at 125 g/ha (corn [13]; [28]) | Corn plant response rating (crop injury, 0 = no effect, 100 = complete kill) at 500 g/ha (corn [13]; [25])
30: Wheat plant response rating (wheat [19]; [27]) | Corn plant response rating (corn [21]; [27])
100%: pest or weed control at 500 g/ha (blackgrass [18]; [25])
100: Plant response rating, Pigweed, Palmer (pigweed, palmer [2]; [24]) | Plant response rating, Pigweed, Palmer (pigweed, palmer [2]; [25]) | Plant response rating, Horseweed (horseweed; [25]) | Plant response rating, Ragweed (ragweed [4]; [25]) | Plant response rating, Soybean (soybean [5]; [24]) | Plant response rating, Soybean (soybean [5]; [25]) | Plant response rating, Ragweed (ragweed [6]; [26]) | Plant response rating, Kochia (kochia [8]; [26]) | Plant response rating, Barnyardgrass (barnyardgrass [10]; [26]) | Plant response rating, Pigweed, Palmer (pigweed, palmer [14]; [26]) | Pigweed, Palmer plant response rating (pigweed, palmer [14]; [27]) | Plant response rating, Foxtail, Green (green foxtail [15]; [26]) | Foxtail, Green plant response rating (green foxtail [15]; [27]) | Plant response rating, Soybean (soybean [17]; [26]) | Plant response rating, Ryegrass, Italian (ryegrass, Italian [22]; [26])
60: Blackgrass plant response rating (blackgrass [3]; [27])
90%: pest or weed control at 125 g/ha (blackgrass [18]; [28])
98: Plant response rating, Sedge, Umbrella (Flood) (sedge, umbrella)
